# ChEMBL document CHEMBL1201861, “Genomics of Drug Sensitity in Cancer screening data, Wellcome Trust Sanger Institute”
# pIC50: −log10 of the molar value.
# What was measured:
# Test in all cases: cells
# Conditions in all cases: Homo sapiens
# KALS-1 = assay type: functional, cell-based;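 note: growth inhibition of KALS-1 cells, determined with a cell viability assay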
# Description: SANGER: Inhibition of human KALS-1 cell growth in a cell viability assay.
# L-363 = assay type: functional, cell-based
# Description: SANGER: Inhibition of human L-363 cell growth in a cell viability assay.
# NB5 = assay type: functional, cell-based;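 note: growth inhibition of NB5 cells, read out as cell viability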
# Description: SANGER: Inhibition of human NB5 cell growth in a cell viability assay.
# NEC8 = assay type: functional, cell-based;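 note: growth inhibition of human NEC8 cells, read out by a cell viability assay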
# Description: SANGER: Inhibition of human NEC8 cell growth in a cell viability assay.
# HD-MY-Z = assay type: functional, cell-based;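 note: growth inhibition of HD-MY-Z cells, read out with a cell viability assay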
# Description: SANGER: Inhibition of human HD-MY-Z cell growth in a cell viability assay.
# SW 962 = assay type: functional, cell-based;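 note: growth inhibition of human SW962 cells, read out by a cell viability assay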
# Description: SANGER: Inhibition of human SW962 cell growth in a cell viability assay.
# KINGS-1 = assay type: functional, cell-based;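 note: cell viability assay measuring suppression of KINGS-1 cell growth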
# Description: SANGER: Inhibition of human KINGS-1 cell growth in a cell viability assay.
# SK-PN-DW = assay type: functional, cell-based;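 note: growth inhibition measured with a viability assay on these cells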
# Description: SANGER: Inhibition of human SK-PN-DW cell growth in a cell viability assay.
# EKVX = assay type: functional, cell-based;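 note: growth inhibition of human EKVX cells, read out with a cell viability assay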
# Description: SANGER: Inhibition of human EKVX cell growth in a cell viability assay.
# SF-126 = assay type: functional, cell-based;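 note: growth inhibition of human SF126 cells, read out with a cell viability assay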
# Description: SANGER: Inhibition of human SF126 cell growth in a cell viability assay.
# SK-NEP-1 = assay type: functional, cell-based;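 note: growth inhibition of human SK-NEP-1 cells, read out by a cell viability assay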
# Description: SANGER: Inhibition of human SK-NEP-1 cell growth in a cell viability assay.
# EW-16 = assay type: functional, cell-based;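 note: growth inhibition of human EW-16 cells, read out as cell viability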
# Description: SANGER: Inhibition of human EW-16 cell growth in a cell viability assay.
# Calu-6 = assay type: functional, cell-based;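 note: growth of human Calu-6 cells, read out by a cell viability assay, IC50 marking inhibition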
# Description: SANGER: Inhibition of human Calu-6 cell growth in a cell viability assay.
# TGBC1TKB = assay type: functional, cell-based;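 note: growth inhibition of TGBC1TKB cells, read out by a cell viability assay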
# Description: SANGER: Inhibition of human TGBC1TKB cell growth in a cell viability assay.
# NCI-H226 = assay type: functional, cell-based;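 note: cell viability read-out used to gauge growth inhibition of the cells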
# Description: SANGER: Inhibition of human NCI-H226 cell growth in a cell viability assay.
# LC-2-ad = assay type: functional, cell-based;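 note: growth inhibition of human LC-2-ad cells, read out with a cell viability assay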
# Description: SANGER: Inhibition of human LC-2-ad cell growth in a cell viability assay.
# SBC-1 = assay type: functional, cell-based;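 note: cell viability assay measuring growth inhibition of the SBC-1 cell line, IC50 being the concentration that halves growth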
# Description: SANGER: Inhibition of human SBC-1 cell growth in a cell viability assay.
# DEL = assay type: functional, cell-based;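 note: growth inhibition of the human DEL cell line, read out with a cell viability assay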
# Description: SANGER: Inhibition of human DEL cell growth in a cell viability assay.
# GOTO = assay type: functional, cell-based;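 note: growth inhibition of GOTO cells, read out by a cell viability assay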
# Description: SANGER: Inhibition of human GOTO cell growth in a cell viability assay.
# TK-10 = assay type: functional, cell-based;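 note: growth inhibition of TK-10 cells, read out in a cell viability assay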
# Description: SANGER: Inhibition of human TK10 cell growth in a cell viability assay.
# MS-1 = assay type: functional, cell-based;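 note: growth inhibition of MS-1 cells, read out by cell viability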
# Description: SANGER: Inhibition of human MS-1 cell growth in a cell viability assay.
# EM-2 = assay type: functional, cell-based;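 note: growth inhibition of EM-2 cells, read out with a cell viability assay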
# Description: SANGER: Inhibition of human EM-2 cell growth in a cell viability assay.
# TE-5 = assay type: functional, cell-based;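 note: inhibition of cell growth, read out by a cell viability assay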
# Description: SANGER: Inhibition of human TE-5 cell growth in a cell viability assay.
# NCI-H23 = assay type: functional, cell-based;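 note: cell viability assay measuring growth inhibition of NCI-H23 cells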
# Description: SANGER: Inhibition of human NCI-H23 cell growth in a cell viability assay.
# COLO-800 = assay type: functional, cell-based;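 note: growth inhibition of COLO-800 cells, read out with a cell viability assay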
# Description: SANGER: Inhibition of human COLO-800 cell growth in a cell viability assay.
# LOX IMVI = assay type: functional, cell-based
# Description: SANGER: Inhibition of human LOXIMVI cell growth in a cell viability assay.
# K562 = assay type: functional, cell-based
# Description: SANGER: Inhibition of human K-562 cell growth in a cell viability assay.
# GAK = assay type: functional, cell-based;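 note: cell growth inhibition read out by a cell viability assay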
# Description: SANGER: Inhibition of human GAK cell growth in a cell viability assay.
# NCI-H1355 = assay type: functional, cell-based;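 note: growth inhibition of human NCI-H1355 cells, read out by a cell viability assay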
# Description: SANGER: Inhibition of human NCI-H1355 cell growth in a cell viability assay.
# NCI-H1092 = assay type: functional, cell-based;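 note: cell growth inhibition measured with a cell viability assay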
# Description: SANGER: Inhibition of human NCI-H1092 cell growth in a cell viability assay.
# SK-N-DZ = assay type: functional, cell-based;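 note: growth inhibition of the cancer cell line, read out through a viability assay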
# Description: SANGER: Inhibition of human SK-N-DZ cell growth in a cell viability assay.
# ML-2 = assay type: functional, cell-based;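 note: growth inhibition of ML-2 cells, measured with a cell viability readout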
# Description: SANGER: Inhibition of human ML-2 cell growth in a cell viability assay.
# MZ1-PC = assay type: functional, cell-based;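 note: cell viability assay measuring growth inhibition of human MZ1-PC cells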
# Description: SANGER: Inhibition of human MZ1-PC cell growth in a cell viability assay.
# LB373-MEL-D = assay type: functional, cell-based;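 note: growth inhibition of the cell line, read out in a cell viability assay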
# Description: SANGER: Inhibition of human LB373-MEL-D cell growth in a cell viability assay.
# KLE = assay type: functional, cell-based;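 note: growth inhibition of human KLE cells, read out with a cell viability assay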
# Description: SANGER: Inhibition of human KLE cell growth in a cell viability assay.
# KGN = assay type: functional, cell-based;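 note: growth inhibition of KGN cells, read out with a cell viability assay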
# Description: SANGER: Inhibition of human KGN cell growth in a cell viability assay.
# KNS-81-FD = assay type: functional, cell-based;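 note: growth inhibition of KNS-81-FD cells, read out with a cell viability assay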
# Description: SANGER: Inhibition of human KNS-81-FD cell growth in a cell viability assay.
# IA-LM = assay type: functional, cell-based;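 note: cell viability assay measuring growth inhibition of human IA-LM cells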
# Description: SANGER: Inhibition of human IA-LM cell growth in a cell viability assay.
# NCI-H1648 = assay type: functional, cell-based;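 note: cell viability assay measuring inhibition of NCI-H1648 cell growth, from the Sanger screening data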
# Description: SANGER: Inhibition of human NCI-H1648 cell growth in a cell viability assay.
# NCI-H2126 = assay type: functional, cell-based;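 note: growth inhibition of the cancer cell line, determined with a cell viability readout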
# Description: SANGER: Inhibition of human NCI-H2126 cell growth in a cell viability assay.
# EW-24 = assay type: functional, cell-based;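 note: human EW-24 cancer cell line, growth inhibition read out via a cell viability assay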
# Description: SANGER: Inhibition of human EW-24 cell growth in a cell viability assay.
# SH-4 = assay type: functional, cell-based;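 note: growth inhibition of SH-4 cells, read out with a cell viability assay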
# Description: SANGER: Inhibition of human SH-4 cell growth in a cell viability assay.
# no-11 = assay type: functional, cell-based;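 note: growth inhibition of human NO-11 cells, read out with a cell viability assay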
# Description: SANGER: Inhibition of human no-11 cell growth in a cell viability assay.
# no-10 = assay type: functional, cell-based;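 note: growth inhibition of no-10 cells, read out with a cell viability assay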
# Description: SANGER: Inhibition of human no-10 cell growth in a cell viability assay.
# NCI-H1395 = assay type: functional, cell-based;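 note: cell viability assay read-out quantifying reduced proliferation of human NCI-H1395 cells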
# Description: SANGER: Inhibition of human NCI-H1395 cell growth in a cell viability assay.
# TE-8 = assay type: functional, cell-based;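 note: growth inhibition of TE-8 cells, measured with a cell viability readout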
# Description: SANGER: Inhibition of human TE-8 cell growth in a cell viability assay.
# RXF 393 = assay type: functional, cell-based;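 note: growth inhibition of human RXF 393 cells, read out with a cell viability assay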
# Description: SANGER: Inhibition of human RXF393 cell growth in a cell viability assay.
# TE-9 = assay type: functional, cell-based;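 note: cell growth inhibition, measured with a cell viability readout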
# Description: SANGER: Inhibition of human TE-9 cell growth in a cell viability assay.
# KARPAS-299 = assay type: functional, cell-based
# Description: SANGER: Inhibition of human KARPAS-299 cell growth in a cell viability assay.
# NCI-H1650 = assay type: functional, cell-based;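 note: growth inhibition of human NCI-H1650 cells measured by a cell viability assay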
# Description: SANGER: Inhibition of human NCI-H1650 cell growth in a cell viability assay.
# TE-12 = assay type: functional, cell-based;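 note: growth inhibition of TE-12 cells, read out by a cell viability assay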
# Description: SANGER: Inhibition of human TE-12 cell growth in a cell viability assay.
# EW-11 = assay type: functional, cell-based;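 note: growth inhibition of human EW-11 cells, measured with a cell viability assay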
# Description: SANGER: Inhibition of human EW-11 cell growth in a cell viability assay.
# MZ7-mel = assay type: functional, cell-based;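 note: growth inhibition of human MZ7-mel cells, measured by a cell viability assay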
# Description: SANGER: Inhibition of human MZ7-mel cell growth in a cell viability assay.
# NCI-H1838 = assay type: functional, cell-based;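 note: growth inhibition of NCI-H1838 cells, determined with a cell viability readout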
# Description: SANGER: Inhibition of human NCI-H1838 cell growth in a cell viability assay.
# EW-3 = assay type: functional, cell-based
# Description: SANGER: Inhibition of human EW-3 cell growth in a cell viability assay.
# NCI-H1155 = assay type: functional, cell-based
# Description: SANGER: Inhibition of human NCI-H1155 cell growth in a cell viability assay.
# CGTH-W-1 = assay type: functional, cell-based
# Description: SANGER: Inhibition of human CGTH-W-1 cell growth in a cell viability assay.
# HT-144 = assay type: functional, cell-based
# Description: SANGER: Inhibition of human HT-144 cell growth in a cell viability assay.
# VA-ES-BJ = assay type: functional, cell-based
# Description: SANGER: Inhibition of human VA-ES-BJ cell growth in a cell viability assay.
# HC-1 = assay type: functional, cell-based
# Description: SANGER: Inhibition of human HC-1 cell growth in a cell viability assay.
# DB = assay type: functional, cell-based
# Description: SANGER: Inhibition of human DB cell growth in a cell viability assay.
# A101D = assay type: functional, cell-based
# Description: SANGER: Inhibition of human A101D cell growth in a cell viability assay.
# COLO-668 = assay type: functional, cell-based
# Description: SANGER: Inhibition of human COLO-668 cell growth in a cell viability assay.
# RKO = assay type: functional, cell-based
# Description: SANGER: Inhibition of human RKO cell growth in a cell viability assay.
# GR-ST = assay type: functional, cell-based
# Description: SANGER: Inhibition of human GR-ST cell growth in a cell viability assay.
# U-87 MG = assay type: functional, cell-based, U-87MG ATCC
# Description: SANGER: Inhibition of human U-87-MG cell growth in a cell viability assay.
structure (smiles),measurement,setting,value
C/C=C(/C)C(=O)O[C@H]1C(C)=C2[C@H]([C@@H]1OC(=O)CCCCCCC)[C@@](C)(OC(C)=O)C[C@H](OC(=O)CCC)[C@@]1(O)[C@H]2OC(=O)[C@@]1(C)O [THAPSIGARGIN],pIC50,KALS-1,9.29
same,pIC50,L-363,9.08
same,pIC50,NB5,7.18
same,pIC50,NEC8,7.96
same,pIC50,HD-MY-Z,7.76
same,pIC50,SW 962,8.16
same,pIC50,KINGS-1,8.12
same,pIC50,SK-PN-DW,> 8.70
same,pIC50,EKVX,6.60
same,pIC50,SF-126,7.42
same,pIC50,SK-NEP-1,7.80
same,pIC50,EW-16,9.22
same,pIC50,Calu-6,8.32
same,pIC50,TGBC1TKB,9.29
same,pIC50,NCI-H226,8.62
same,pIC50,LC-2-ad,8.33
same,pIC50,SBC-1,7.32
same,pIC50,DEL,7.99
same,pIC50,GOTO,7.30
same,pIC50,TK-10,7.64
same,pIC50,MS-1,7.53
same,pIC50,EM-2,7.26
same,pIC50,TE-5,< 6.29
same,pIC50,NCI-H23,< 6.29
same,pIC50,COLO-800,7.29
same,pIC50,LOX IMVI,8.53
same,pIC50,K562,6.52
same,pIC50,GAK,6.70
same,pIC50,NCI-H1355,8.26
same,pIC50,NCI-H1092,< 6.29
same,pIC50,SK-N-DZ,7.36
same,pIC50,ML-2,7.27
same,pIC50,MZ1-PC,> 8.70
same,pIC50,LB373-MEL-D,7.54
same,pIC50,KLE,7.15
same,pIC50,KGN,> 8.70
same,pIC50,KNS-81-FD,< 6.29
same,pIC50,IA-LM,8.62
same,pIC50,NCI-H1648,8.84
same,pIC50,NCI-H2126,7.10
same,pIC50,EW-24,6.83
same,pIC50,SH-4,7.75
same,pIC50,no-11,7.23
same,pIC50,no-10,< 6.29
same,pIC50,NCI-H1395,6.75
same,pIC50,TE-8,8.86
same,pIC50,RXF 393,< 6.29
same,pIC50,TE-9,7.88
same,pIC50,KARPAS-299,7.45
same,pIC50,NCI-H1650,6.83
same,pIC50,TE-12,7.98
same,pIC50,EW-11,7.26
same,pIC50,MZ7-mel,6.97
same,pIC50,NCI-H1838,< 6.29
same,pIC50,EW-3,6.93
same,pIC50,NCI-H1155,6.55
same,pIC50,CGTH-W-1,> 8.70
same,pIC50,HT-144,9.29
same,pIC50,VA-ES-BJ,7.74
same,pIC50,HC-1,6.96
same,pIC50,DB,8.59
same,pIC50,A101D,8.32
same,pIC50,COLO-668,7.71
same,pIC50,RKO,8.79
same,pIC50,GR-ST,7.98
same,pIC50,U-87 MG,6.88
C[C@]1(c2nc3c(C(N)=O)cccc3[nH]2)CCCN1 [VELIPARIB],pIC50,KALS-1,< 5.30
same,pIC50,L-363,< 5.30
same,pIC50,NB5,< 5.30
same,pIC50,NEC8,< 5.30
same,pIC50,HD-MY-Z,< 5.30
same,pIC50,SW 962,< 5.30
same,pIC50,KINGS-1,< 5.30
same,pIC50,SK-PN-DW,< 5.30
same,pIC50,EKVX,< 5.30
same,pIC50,SF-126,< 5.30
same,pIC50,SK-NEP-1,< 5.30
same,pIC50,EW-16,< 5.30
same,pIC50,Calu-6,< 5.30
same,pIC50,TGBC1TKB,< 5.30
same,pIC50,NCI-H226,< 5.30
same,pIC50,LC-2-ad,< 5.30
same,pIC50,SBC-1,< 5.30
same,pIC50,DEL,< 5.30
same,pIC50,GOTO,< 5.30
same,pIC50,TK-10,< 5.30
same,pIC50,MS-1,< 5.30
same,pIC50,EM-2,< 5.30
same,pIC50,TE-5,< 5.30
same,pIC50,NCI-H23,< 5.30
same,pIC50,COLO-800,< 5.30
same,pIC50,LOX IMVI,< 5.30
same,pIC50,K562,< 5.30
same,pIC50,GAK,< 5.30
same,pIC50,NCI-H1355,< 5.30
same,pIC50,NCI-H1092,< 5.30
same,pIC50,SK-N-DZ,< 5.30
same,pIC50,ML-2,< 5.30
same,pIC50,MZ1-PC,< 5.30
same,pIC50,LB373-MEL-D,< 5.30
same,pIC50,KLE,< 5.30
same,pIC50,KGN,< 5.30
same,pIC50,KNS-81-FD,< 5.30
same,pIC50,IA-LM,< 5.30
same,pIC50,NCI-H1648,< 5.30
same,pIC50,NCI-H2126,< 5.30
same,pIC50,EW-24,< 5.30
same,pIC50,SH-4,< 5.30
same,pIC50,no-11,< 5.30
same,pIC50,no-10,< 5.30
same,pIC50,NCI-H1395,< 5.30
same,pIC50,TE-8,< 5.30
same,pIC50,RXF 393,< 5.30
same,pIC50,TE-9,< 5.30
same,pIC50,KARPAS-299,< 5.30
same,pIC50,NCI-H1650,< 5.30
same,pIC50,TE-12,< 5.30
same,pIC50,EW-11,< 5.30
same,pIC50,MZ7-mel,< 5.30
same,pIC50,NCI-H1838,< 5.30
same,pIC50,EW-3,< 5.30
same,pIC50,NCI-H1155,< 5.30
same,pIC50,CGTH-W-1,< 5.30
same,pIC50,HT-144,< 5.30
same,pIC50,VA-ES-BJ,< 5.30
same,pIC50,HC-1,< 5.30
same,pIC50,DB,< 5.30
same,pIC50,A101D,< 5.30
same,pIC50,COLO-668,< 5.30
same,pIC50,RKO,< 5.30
same,pIC50,GR-ST,< 5.30
same,pIC50,U-87 MG,< 5.30
